From patent US5631248A, “Supersaturated topical compositions” (priority 1992, dated 1997)

Experiment: Saturated concentration of hydrocortisone acetate in propylene glycol
Type: physicochemical
Conditions: saturated solution in propylene glycol (Sample A)

For `CC(=O)OCC(=O)[C@@]1(O)CC[C@H]2[C@@H]3CCC4=CC(=O)CC[C@]4(C)[C@H]3[C@@H](O)C[C@@]21C` [hydrocortisone acetate], which “concentration of saturated solution in propylene glycol” value is on record?
The value was 0.10 % w/w.
